Reference: the NIST ThermoML archive (doi:10.1021/je400830w)
Numbers after ± are expanded uncertainties.

How the values were obtained:
[1] = wn = mass fraction of the nth substance listed; conditions: 100 kPa, Liquid; for mass density: Vibrating tube method
[2] = refractive index (Na D-line) (dimensionless); wn = mass fraction of the nth substance listed; conditions: 100 kPa, Liquid, Standard Abbe refractometry

O=C([O-])[C@@H]1CCCN1.[Na+] [sodium L-prolinate] + O
Conditions	mass density, [1] [kg/m3]	refractive index, [2]	viscosity, [1] [mPa·s]
298.15 K, w1 = 0.05	1015.28 ± 0.79	1.34005 ± 0.00048	1.16 ± 0.025
298.15 K, w1 = 0.1	1033.9 ± 0.81	1.34767 ± 0.00049	1.456 ± 0.03
298.15 K, w1 = 0.2	1071.61 ± 0.85	1.36337 ± 0.0005	2.292 ± 0.045
298.15 K, w1 = 0.3	1109.81 ± 0.91	1.37937 ± 0.00052	3.787 ± 0.072
298.15 K, w1 = 0.4	1148.69 ± 0.98	1.39604 ± 0.00053	5.56 ± 0.1
303.15 K, w1 = 0.05	1013.73 ± 0.79	1.33942 ± 0.00048	1.02 ± 0.023
303.15 K, w1 = 0.1	1032.18 ± 0.8	1.34706 ± 0.00049	1.267 ± 0.027
303.15 K, w1 = 0.2	1069.51 ± 0.84	1.36278 ± 0.0005	1.967 ± 0.039
303.15 K, w1 = 0.3	1106.73 ± 0.9	1.37869 ± 0.00052	3.327 ± 0.063
303.15 K, w1 = 0.4	1145.79 ± 0.99	1.39498 ± 0.00053	4.801 ± 0.087
308.15 K, w1 = 0.05	1011.98 ± 0.78	1.33879 ± 0.00048	0.9028 ± 0.021
308.15 K, w1 = 0.1	1030.28 ± 0.8	1.34633 ± 0.00049	1.114 ± 0.025
308.15 K, w1 = 0.2	1067.29 ± 0.83	1.36201 ± 0.0005	1.702 ± 0.035
308.15 K, w1 = 0.3	1104.08 ± 0.9	1.37768 ± 0.00052	2.923 ± 0.055
308.15 K, w1 = 0.4	1142.83 ± 0.98	1.39387 ± 0.00053	4.21 ± 0.076
313.15 K, w1 = 0.05	1010.05 ± 0.78	1.33802 ± 0.00048	0.8062 ± 0.02
313.15 K, w1 = 0.1	1028.22 ± 0.79	1.3456 ± 0.00049	0.984 ± 0.023
313.15 K, w1 = 0.2	1064.94 ± 0.83	1.36125 ± 0.0005	1.482 ± 0.031
313.15 K, w1 = 0.3	1101.95 ± 0.89	1.37678 ± 0.00051	2.509 ± 0.047
313.15 K, w1 = 0.4	1139.8 ± 0.96	1.39268 ± 0.00053	3.53 ± 0.064
318.15 K, w1 = 0.05	1007.96 ± 0.77	1.33724 ± 0.00049	0.7245 ± 0.019
318.15 K, w1 = 0.1	1026.01 ± 0.78	1.34502 ± 0.00049	0.8784 ± 0.021
318.15 K, w1 = 0.2	1062.47 ± 0.82	1.36042 ± 0.0005	1.309 ± 0.028
318.15 K, w1 = 0.3	1099.31 ± 0.88	1.37586 ± 0.00051	2.193 ± 0.041
318.15 K, w1 = 0.4	1136.71 ± 0.95	1.39154 ± 0.00052	2.997 ± 0.054
323.15 K, w1 = 0.05	1005.72 ± 0.77	1.33642 ± 0.00049	0.6556 ± 0.018
323.15 K, w1 = 0.1	1023.66 ± 0.78	1.34433 ± 0.00049	0.7874 ± 0.02
323.15 K, w1 = 0.2	1059.89 ± 0.82	1.35984 ± 0.0005	1.164 ± 0.026
323.15 K, w1 = 0.3	1096.7 ± 0.88	1.37526 ± 0.00051	1.94 ± 0.036
323.15 K, w1 = 0.4	1133.56 ± 0.94	1.39048 ± 0.00052	2.581 ± 0.046
328.15 K, w1 = 0.05	1003.32 ± 0.76	1.33569 ± 0.00049	0.5983 ± 0.017
328.15 K, w1 = 0.1	1021.18 ± 0.78	1.34373 ± 0.00049	0.7118 ± 0.019
328.15 K, w1 = 0.2	1057.21 ± 0.81	1.35931 ± 0.0005	1.038 ± 0.023
328.15 K, w1 = 0.3	1092.78 ± 0.87	1.37439 ± 0.0005	1.69 ± 0.032
328.15 K, w1 = 0.4	1130.34 ± 0.95	1.38912 ± 0.00051	2.241 ± 0.04
333.15 K, w1 = 0.05	1000.79 ± 0.76	1.33497 ± 0.00049	0.5454 ± 0.017
333.15 K, w1 = 0.1	1018.58 ± 0.77	1.34306 ± 0.00049	0.6471 ± 0.018
333.15 K, w1 = 0.2	1054.42 ± 0.81	1.35882 ± 0.0005	0.9221 ± 0.022
333.15 K, w1 = 0.3	1090.33 ± 0.86	1.37364 ± 0.0005	1.519 ± 0.029
333.15 K, w1 = 0.4	1127.09 ± 0.93	1.38795 ± 0.00051	1.96 ± 0.035
338.15 K, w1 = 0.05	998.13 ± 0.76	1.33424 ± 0.0005	0.5008 ± 0.016
338.15 K, w1 = 0.1	1015.87 ± 0.77	1.34256 ± 0.0005	0.593 ± 0.017
338.15 K, w1 = 0.2	1051.56 ± 0.81	1.35866 ± 0.0005	0.8345 ± 0.021
338.15 K, w1 = 0.3	1088.2 ± 0.86	1.37322 ± 0.00049	1.361 ± 0.027
338.15 K, w1 = 0.4	1123.8 ± 0.91	1.38677 ± 0.0005	1.728 ± 0.032
343.15 K, w1 = 0.05	995.35 ± 0.75	1.33349 ± 0.00051	0.4617 ± 0.016
343.15 K, w1 = 0.1	1013.04 ± 0.77	1.34213 ± 0.0005	0.5426 ± 0.017
343.15 K, w1 = 0.2	1048.61 ± 0.81	1.35842 ± 0.0005	0.7524 ± 0.019
343.15 K, w1 = 0.3	1085.34 ± 0.85	1.37279 ± 0.00049	1.203 ± 0.025
343.15 K, w1 = 0.4	1120.46 ± 0.9	1.38566 ± 0.00049	1.536 ± 0.029
